Data on two compounds can be found in PMC5752149 (European journal of medicinal chemistry, 2017).

For test [1], the target named is T1, EphA2 receptor (Homo sapiens, UniProt P29317). Briefly: EphA2 phosphorylation and internalization in MDA-MB-231 cells. It is filed as cell-based.
Test [2] has as its target T1, EphA2 receptor. Briefly: EphA2 phosphorylation in EphA2-overexpressing MDA-MB-231 cells. Type of test: cell-based.

T1 sequence (P29317 24-976): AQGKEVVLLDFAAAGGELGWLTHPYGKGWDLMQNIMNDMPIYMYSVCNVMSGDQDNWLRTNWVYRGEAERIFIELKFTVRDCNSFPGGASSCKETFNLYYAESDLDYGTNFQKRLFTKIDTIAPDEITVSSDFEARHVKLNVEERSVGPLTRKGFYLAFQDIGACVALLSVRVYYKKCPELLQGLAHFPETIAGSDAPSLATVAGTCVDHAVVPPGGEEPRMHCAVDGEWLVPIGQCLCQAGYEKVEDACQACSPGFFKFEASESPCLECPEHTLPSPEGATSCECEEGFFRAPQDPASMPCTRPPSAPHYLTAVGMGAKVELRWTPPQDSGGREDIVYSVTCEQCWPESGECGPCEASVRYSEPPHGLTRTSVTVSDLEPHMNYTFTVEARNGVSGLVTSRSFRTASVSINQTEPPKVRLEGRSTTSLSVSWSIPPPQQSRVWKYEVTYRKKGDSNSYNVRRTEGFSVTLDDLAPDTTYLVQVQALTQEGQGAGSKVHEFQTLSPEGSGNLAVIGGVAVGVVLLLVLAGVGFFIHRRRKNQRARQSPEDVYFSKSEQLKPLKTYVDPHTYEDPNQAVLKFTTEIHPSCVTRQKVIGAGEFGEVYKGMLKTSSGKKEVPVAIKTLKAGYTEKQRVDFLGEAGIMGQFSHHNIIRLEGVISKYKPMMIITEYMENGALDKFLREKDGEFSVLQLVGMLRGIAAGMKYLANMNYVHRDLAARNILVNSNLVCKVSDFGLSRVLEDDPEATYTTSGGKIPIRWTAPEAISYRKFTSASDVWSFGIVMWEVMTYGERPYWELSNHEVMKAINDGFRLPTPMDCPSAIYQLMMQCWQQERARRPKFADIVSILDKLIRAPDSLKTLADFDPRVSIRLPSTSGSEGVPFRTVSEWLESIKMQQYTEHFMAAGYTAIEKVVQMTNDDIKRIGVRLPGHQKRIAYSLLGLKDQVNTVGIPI

As to `COc1cc2nc(N3CCN(C(=O)C4COc5ccccc5O4)CC3)nc(N)c2cc1OC` (centres unmarked) [Doxazosin, 2-[4-(2,3-Dihydro-1,4-benzodioxine-2-carbonyl)piperazin-1-yl]-6,7-dimethoxyquinazolin-4-amine], the “EphA2 phosphorylation and internalization in MDA-MB-231 cells (positive control,” value at EphA2 receptor [1] is ~ 50 μM. Regarding `COc1cc2nc(N3CCN(C(=O)CCCCCCCCCCC(=O)N4CCN(c5nc(N)c6cc(OC)c(OC)cc6n5)CC4)CC3)nc(N)c2cc1OC` [compound 27, 1,12-bis(4-(4-amino-6,7-dimethoxyquinazolin-2-yl)piperazin-1-yl)dodecane-1,12-dione], the “EphA2 phosphorylation in EphA2-overexpressing MDA-MB-231 cells; receptor interna” value on EphA2 receptor [2] was ~ 0.4 μM.
